Test results as given in patent US20150065709A1, “Aminoquinazoline Derivative And Use Thereof In Preparing Anti-Malignant Tumor Medicament” (METABOMICS, INC, priority 2012, published 2015).

Assays:
N87(gastric cancer) = assay: Transplanted tumor in nude mice, N87 model; format: in vivo, nude mice (BALB/c)
From the text: (§1) Furthermore, more pharmacological models of tumor cell lines in nude mice were utilized to validate the inhibitory effects of compound Ie. The test method was specifically described as follows: H1975, A549, HCC827, A431, N87, MDA-MD-468 and CAL27 tumor cells respectively were inoculated into nude mice (BALB/c, male, 5-6 weeks of age), and when the mean tumor volume reaches 150 mm^3 mice was randomized into groups. The H1975 tumor model in nude mice includes one positive control group and three dosage groups of compound Ie (6.7 mg/kg/day, 13.4 mg/kg/day, and 20.1 mg/kg/day. The A549 tumor model in nude mice includes one positive control group, two dosage groups of compound Ie (10 mg/kg/day, 20 mg/kg/day), and one dosage group of Docetaxel (12 mg/kg/day). The HCC827 tumor model in nude mice includes one positive control group, two dosage groups of compound Ie (0.5 mg/kg/day, 2.5 mg/kg/day), and one dosage group of Erlotinib (12.5 mg/kg/day). The A431 tumor model in nude mice includes one positive control group, two dosage groups of compound Ie (2.5 mg/kg/day, 5 mg/kg/day), and one dosage group of Erlotinib (50 mg/kg/day). […] The tumor size and body weight of nude mice were recorded twice weekly from the first day of administration. The tumor volume was calculated using formula (1×w^2), wherein 1 and w respectively represents the maximum and minimum size in each measurement. […]

A431(EGFR) = assay: Transplanted tumor in nude mice, A431 model; format: in vivo, nude mice (BALB/c)
From the text: as §1

[1] = system: MDA-MD-468 (breast cancer); assay: Transplanted tumor in nude mice, MDA-MD-468 model; format: in vivo, nude mice (BALB/c)
From the text: as §1

[2] = system: HCC827 (non-small cell lung cancer); assay: Transplanted tumor in nude mice, HCC827 model; format: in vivo, nude mice (BALB/c)
From the text: as §1

H1650 = assay: Inhibition of tumor cells, WST method; format: cell-based; conditions: Homo sapiens, NCI-H1650, 48 hours
Procedure: (§2) (1) Compounds: in vitro studies the test compounds was dissolved in 100% DMSO and diluted until the final concentration of DMSO was 0.1%. The 0.1% (v/v) DMSO was added into culture medium as solvent control. 9 concentration gradients were tested and each gradient was repeated twice. (2) Tumor cell lines: the tumor cell lines were cultivated in RPMI10 culture medium containing 10% fetal calf serum in incubator at 37° C. in a 5% CO2 air incubator. The tested tumor cell lines were: BT474, MDA-MB-231, SK-Br-3, A431, H292, H1975, HCC827, A549, H1650 and H1734. (3) MTS method: cells were seeded into 96-well plate to give a density of about 3000 cells per well, and incubated overnight in a humidified incubator at 37° C. In the next day, the test compounds were added to the wells and further incubated for 72 hours. The cell activity was detected using MTS. IC50 was calculated (the concentration of a compound that is required for 50% inhibition of the cell growth versus the DMSO control group, using nonlinear regression analysis of software GraphPad Prism). […] In a 96-well plate, each test compound was tested at 9 dosage concentrations and each dosage was made in triplicate. Samples were added in 100 μL/well. Cell control and negative control wells contained diluents instead of compounds. Except the negative control well, 100 μL cell suspension of complete medium was added into each test well, wherein corresponding cell numbers were included to assure that the cells in cell control well just cover the bottom of the well as the required incubation time was reached. The plate was incubated in a CO2 incubator at 37° C. for 48 hours. The liquid in test wells was removed by pipetting. 100 μL CCK-8 (Cell counting Kit-8, purchased from DOJINDO Molecular Technologies) detection liquid (containing 10% CCK-8, 5% FBS corresponding medium) was added into each test well, then the plate was incubated in a CO2 incubator under at 37° C. for 3 hours. OD value was detected by ELIASA at A450 nm. Cell viability percentage (%)=(O.D. test compound-O.D. blank)/(O.D. control-O.D. blank)×100. Mean value was calculated for each 3 repeated wells, and IC50 was calculated using nonlinear regression (fitted curve) data analysis method.
(§3) Parts of test results of compound Ie listed in the table 3 and all of the test results listed in the table 4 were obtained by WST method.

FaDu = assay: Inhibition of tumor cells, WST method; format: cell-based; conditions: Homo sapiens, Head and Neck
Procedure: as §2, §3

NCI-H358 = assay: Inhibition of tumor cells, WST method; format: cell-based; conditions: Homo sapiens, Lung
Procedure: as §2, §3

H1975 = assay: Inhibition of tumor cells, WST method; format: cell-based; conditions: Homo sapiens, NCI-H1975, 48 hours
Procedure: as §2, §3

C-33A = assay: Inhibition of tumor cells, WST method; format: cell-based; conditions: Homo sapiens, Uterine Neck
Procedure: as §2, §3

Calu-3 = assay: Inhibition of tumor cells, WST method; format: cell-based; conditions: Homo sapiens, Lung
Procedure: as §2, §3

A431 = assay: Inhibition of tumor cells, WST method; format: cell-based; conditions: Homo sapiens, A-431, 48 hours
Procedure: as §2, §3

A549 = assay: Inhibition of tumor cells, WST method; format: cell-based; conditions: Homo sapiens, 48 hours
Procedure: as §2, §3

BT474 = assay: Inhibition of tumor cells, WST method; format: cell-based; conditions: Homo sapiens, BT-474, 48 hours
Procedure: as §2, §3

NUGC-3 = assay: Inhibition of tumor cells, WST method; format: cell-based; conditions: Homo sapiens, Stomach
Procedure: as §2, §3

CW-2 = assay: Inhibition of tumor cells, WST method; format: cell-based; conditions: Homo sapiens, Colon
Procedure: as §2, §3

EGFR^T790M = EGFR^T790M (Homo sapiens, UniProt P00533, T790M); assay: Caliper Mobility Shift Assay, mutant EGFR kinase; format: biochemical; conditions: read-out: Inhibition of Kinase Activity (IC50, nM) EGFR^T790M
[3] = system: H1975 (non-small cell lung cancer); assay: Transplanted tumor in nude mice, further H1975 model; format: in vivo, nude mice (BALB/c); conditions: 6.7, 13.4, 20.1 mg/kg/day orally for 21 days
From the text: as §1

[4] = 5, 10 mg/kg/day orally for 21 days

Chain of EGFR^T790M (P00533 25-1210 T790M): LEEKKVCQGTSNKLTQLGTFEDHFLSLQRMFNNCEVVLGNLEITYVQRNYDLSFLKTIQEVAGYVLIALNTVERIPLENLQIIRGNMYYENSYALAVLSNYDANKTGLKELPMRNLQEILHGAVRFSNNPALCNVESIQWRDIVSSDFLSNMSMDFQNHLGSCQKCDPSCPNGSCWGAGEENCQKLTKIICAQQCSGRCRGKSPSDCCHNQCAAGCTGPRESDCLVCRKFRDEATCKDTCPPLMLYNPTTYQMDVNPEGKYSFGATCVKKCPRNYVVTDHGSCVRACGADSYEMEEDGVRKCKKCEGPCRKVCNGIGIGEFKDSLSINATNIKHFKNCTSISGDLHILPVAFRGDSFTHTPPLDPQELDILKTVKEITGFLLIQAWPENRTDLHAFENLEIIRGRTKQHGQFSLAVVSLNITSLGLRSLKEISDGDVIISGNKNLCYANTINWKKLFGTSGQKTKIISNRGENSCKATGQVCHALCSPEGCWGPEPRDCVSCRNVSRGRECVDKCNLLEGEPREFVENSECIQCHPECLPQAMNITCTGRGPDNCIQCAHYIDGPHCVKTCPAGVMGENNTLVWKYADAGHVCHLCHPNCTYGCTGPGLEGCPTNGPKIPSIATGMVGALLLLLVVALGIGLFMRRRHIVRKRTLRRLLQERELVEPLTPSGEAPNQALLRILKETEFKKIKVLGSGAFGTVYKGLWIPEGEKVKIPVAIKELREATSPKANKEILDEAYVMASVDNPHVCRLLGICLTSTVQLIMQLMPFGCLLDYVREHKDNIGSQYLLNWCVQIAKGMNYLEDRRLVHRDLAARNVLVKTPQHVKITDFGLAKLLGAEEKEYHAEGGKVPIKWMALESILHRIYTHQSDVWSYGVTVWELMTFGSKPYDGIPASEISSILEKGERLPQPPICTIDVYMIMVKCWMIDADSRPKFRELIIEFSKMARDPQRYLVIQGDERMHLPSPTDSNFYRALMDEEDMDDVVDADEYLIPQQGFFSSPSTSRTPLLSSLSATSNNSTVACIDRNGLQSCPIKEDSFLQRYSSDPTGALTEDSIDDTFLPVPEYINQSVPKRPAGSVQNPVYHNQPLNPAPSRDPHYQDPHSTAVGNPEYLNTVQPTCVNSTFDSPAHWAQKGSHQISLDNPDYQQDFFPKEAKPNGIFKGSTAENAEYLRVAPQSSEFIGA

Which “inhibitory and therapeutic effects on N87 tumor model” value (N87(gastric cancer); [4]) does the source give for `CN(C)C/C=C/C(=O)Nc1cc2c(Nc3ccc(F)c(Cl)c3)ncnc2cc1OC(F)F` [Compound Ie] here?
The value was “strong inhibitory effects and therapeutic effects”.

What about the “inhibitory effects on tumor cell growth compared with other drugs, N87 model” value (N87(gastric cancer); versus Lapatinib (90 mg/kg/day, twice daily)) of the same compound?
Its value is “stronger inhibitory effects”.

What about the “inhibitory and therapeutic effects on A431 tumor model” value (A431(EGFR); 2.5, 5 mg/kg/day orally for 21 days) of the same compound?
The value was “strong inhibitory effects and therapeutic effects”.

What about the “inhibitory effects on tumor cell growth compared with other drugs, A431 model” value (A431(EGFR); versus Erlotinib (50 mg/kg/day)) of the same compound?
Its value is “stronger inhibitory effects”.

And the “inhibitory and therapeutic effects on MDA-MD-468 tumor model” value [1, 4]?
Its value is “strong inhibitory effects and therapeutic effects”.

What about the “inhibitory effects on tumor cell growth compared with other drugs, MDA-MD-468 model” value ([1]; versus Docetaxel (12 mg/kg/week) and Afatinib (30 mg/kg/day)) of the same compound?
The value was “stronger inhibitory effects”.

What about the “inhibitory and therapeutic effects on HCC827 tumor model” value ([2]; 0.5, 2.5 mg/kg/day orally for 21 days) of the same compound?
Its value is “strong inhibitory effects and therapeutic effects”.

What about the “inhibitory effects on tumor cell growth compared with other drugs, HCC827 model” value ([2]; versus Erlotinib (12.5 mg/kg/day)) of the same compound?
The value was “stronger inhibitory effects”.

And the IC50 (H1650)?
Its IC50 is 0.702 µM.

And the IC50 (FaDu)?
The IC50 was 0.169 µM.

And the IC50 (NCI-H358)?
The IC50 was 0.195 µM.

And the IC50 (H1975)?
Its IC50 is 0.198 µM.

And the IC50 (C-33A)?
The IC50 was 0.057 µM.

What about the IC50 (Calu-3) of the same compound?
Its IC50 is 0.022 µM.

And the IC50 (A431)?
The IC50 was 1.24 µM.

What about the IC50 (A549) of the same compound?
Its IC50 is 0.204 µM.

What about the IC50 (BT474) of the same compound?
The IC50 was 0.088 µM.

And the IC50 (NUGC-3)?
The IC50 was 0.055 µM.

What about the IC50 (CW-2) of the same compound?
The IC50 was 0.036 µM.

And the IC50 (EGFR^T790M)?
Its IC50 is 4.6 nM.

What about the “inhibitory and therapeutic effects on H1975 tumor model” value [3] of the same compound?
Its value is “strong inhibitory effects and therapeutic effects”.
